Tested on: EAS associated adrenal hyperplasia no. 1 primary culture
Experiment: Steroid profile by LC/MS-MS in EAS associated adrenal hyperplasia no. 1
Format: cell-based, human
Conditions: for 11-DOC absolute change vs ACTH stimulation with vehicle / 11-DOC percentage change vs ACTH stimulation with vehicle / 17-OHP absolute change vs ACTH stimulation with vehicle / 17-OHP percentage change vs ACTH stimulation with vehicle / Androstenedione absolute change vs ACTH stimulation with vehicle / Androstenedione percentage change vs ACTH stimulation with vehicle / Corticosterone absolute change vs ACTH stimulation with vehicle / Corticosterone percentage change vs ACTH stimulation with vehicle / Cortisol absolute change vs ACTH stimulation with vehicle / Cortisol percentage change vs ACTH stimulation with vehicle / DHEA absolute change vs ACTH stimulation with vehicle / DHEAS absolute change vs ACTH stimulation with vehicle / Prog absolute change vs ACTH stimulation with vehicle / Prog percentage change vs ACTH stimulation with vehicle / Testosterone absolute change vs ACTH stimulation with vehicle / Testosterone percentage change vs ACTH stimulation with vehicle: EAS associated adrenal hyperplasia no. 1, ACTH; for 11-DOC absolute change vs ACTH stimulation with vehicle / 11-DOC percentage change vs ACTH stimulation with vehicle / 17-OHP absolute change vs ACTH stimulation with vehicle / 17-OHP percentage change vs ACTH stimulation with vehicle / Androstenedione absolute change vs ACTH stimulation with vehicle / Androstenedione percentage change vs ACTH stimulation with vehicle / Corticosterone absolute change vs ACTH stimulation with vehicle / Corticosterone percentage change vs ACTH stimulation with vehicle / Cortisol absolute change vs ACTH stimulation with vehicle / Cortisol percentage change vs ACTH stimulation with vehicle / DHEA absolute change vs ACTH stimulation with vehicle / DHEAS absolute change vs ACTH stimulation with vehicle / Prog absolute change vs ACTH stimulation with vehicle / Prog percentage change vs ACTH stimulation with vehicle / Testosterone absolute change vs ACTH stimulation with vehicle / Testosterone percentage change vs ACTH stimulation with vehicle / 11-DOC absolute change vs control / 11-DOC percentage change vs control / 17-OHP absolute change vs control / 17-OHP percentage change vs control / Androstenedione absolute change vs control / Androstenedione percentage change vs control / Corticosterone absolute change vs control / Corticosterone percentage change vs control / Cortisol absolute change vs control / Cortisol percentage change vs control / DHEA absolute change vs control / DHEAS absolute change vs control / Prog absolute change vs control / Prog percentage change vs control / Testosterone absolute change vs control / Testosterone percentage change vs control: 3 days; for 11-DOC absolute change vs control / 11-DOC percentage change vs control / 17-OHP absolute change vs control / 17-OHP percentage change vs control / Androstenedione absolute change vs control / Androstenedione percentage change vs control / Corticosterone absolute change vs control / Corticosterone percentage change vs control / Cortisol absolute change vs control / Cortisol percentage change vs control / DHEA absolute change vs control / DHEAS absolute change vs control / Prog absolute change vs control / Prog percentage change vs control / Testosterone absolute change vs control / Testosterone percentage change vs control: EAS associated adrenal hyperplasia no. 1, Basal
Method: To obtain primary cultures, adrenal specimens (adrenocortical adenomas, adrenal hyperplasias and adrenocortical carcinomas) were collected after adrenalectomy at the department of Surgery, Erasmus University Medical Center, Rotterdam, the Netherlands, between April 2016 and May 2018. The study was conducted under guidelines that have been approved by the Medical Ethics Committee of the Erasmus Medical Center and informed consent was obtained from all patients. Immediately after surgery, specimens were minced into small pieces of 2-3 mm^3, washed in culture medium and centrifuged for 5 minutes at 600 g. The tissue was stored overnight in culture medium at 4° C., where after the tissue was centrifuged again and the supernatant was removed. Fragments were dissociated using 10-25 ml collagenase type 1 (2 mg/ml: Sigma-Aldrich), followed by incubation at 37° C. for up to two hours. Ficoll (GE healthcare) density gradient separation was used once or twice as required in order to separate contaminating red blood cells from the tumor cells. Cell viability and cell amount were counted by trypan blue exclusion. Dissociated cells were plated at a density of 10^5 cells per well. ACTH-secreting corticotroph pituitary adenoma tissue from patients with Cushing's disease (n=2) was available after transsphenoidal surgery. Single-cell suspensions of the pituitary adenoma tissues were prepared as previously described in detail.
Primary culture conditions for primary cultures were similar as described in the section ‘cell culture and compounds’, but with small adjustments: ACTH was used at a concentration of 85 pM (250 pg/mL), treatment was started 3-4 days after plating of the cells and cells were incubated for 3 days, and; for pituitary primary cultures, levoketoconazole and racemic ketoconazole were only tested at a concentration of 1 μM. Owing to a limited number of cells obtained from the specimens, not all experiments were carried out in every primary culture.
Cortisol concentrations were measured in the supernatant using a chemiluminescence immunoassay system (Immulite 2000XPi; Siemens DPC Inc., Los Angeles, Calif., USA). In addition, we carried out multi-steroid analysis by liquid chromatography/mass spectrometry (LC/MS-MS) to accurately quantify androstenedione, corticosterone, cortisol, 11-deoxycortisol, DHEA, DHEAS, progesterone, 17-hydroxyprogesterone, and testosterone. Concentrations that were tested on the LC/MS-MS were closest to 50% inhibition or maximal inhibition of cortisol as determined by the immunoassay. Steroids were quantified with respect to a calibration series, with internal standards. Steroids were quantified on a Xevo TQS LC-MS/MS (Waters Chromatography).
Statistical analysis was performed using Graphpad Prism 6.0 (Graphpad Software, San Diego, CA). Non-linear regression curve fitting program was used to calculate the half maximal inhibitory concentrations (IC50) on cortisol production. Effects of both compounds on the steroid profile were measured as absolute change compared to control and compared using the Student's t-test. When assessing differences between effects of both compounds, the percentage change was evaluated and compared in order to correct for differences in the vehicle treated control cells. Values of P<0.05 were considered statistically significant and data are presented as mean SEM.

CC(=O)N1CCN(c2ccc(OC[C@@H]3CO[C@@](Cn4ccnc4)(c4ccc(Cl)cc4Cl)O3)cc2)CC1 (relative stereo) [levoketoconazole, 2S,4R cis-1-acetyl-4-[4-[[2-(2,4-dichlorophenyl)-2-(1H-imidazol-1-ylmethyl)-1,3-dioxolan-4-yl]methoxyl]phenyl]piperazine]
11-DOC absolute change vs ACTH stimulation with vehicle (0.05 μM): did not change | 11-DOC percentage change vs ACTH stimulation with vehicle (0.05 μM): (+1.6%) | 17-OHP absolute change vs ACTH stimulation with vehicle (0.05 μM): +8.300 nmol/l | 17-OHP percentage change vs ACTH stimulation with vehicle (0.05 μM): +41% | Androstenedione absolute change vs ACTH stimulation with vehicle (0.05 μM): -9.600 nmol/L | Androstenedione percentage change vs ACTH stimulation with vehicle (0.05 μM): −50% | Corticosterone absolute change vs ACTH stimulation with vehicle (0.05 μM): +97.95 nmol/l | Corticosterone percentage change vs ACTH stimulation with vehicle (0.05 μM): +29% | Cortisol absolute change vs ACTH stimulation with vehicle (0.05 μM): -234.8 nmol/L | Cortisol percentage change vs ACTH stimulation with vehicle (0.05 μM): −37% | DHEA absolute change vs ACTH stimulation with vehicle (0.05 μM): <LLQ | DHEAS absolute change vs ACTH stimulation with vehicle (0.05 μM): <LLQ | Prog absolute change vs ACTH stimulation with vehicle (0.05 μM): +6.025 nmol/l | Prog percentage change vs ACTH stimulation with vehicle (0.05 μM): +167% | Testosterone absolute change vs ACTH stimulation with vehicle (0.05 μM): -0.3250 nmol/L | Testosterone percentage change vs ACTH stimulation with vehicle (0.05 μM): −45% | 11-DOC absolute change vs ACTH stimulation with vehicle (0.05 μM, listed as LK): -6.000 nmol/L | 17-OHP absolute change vs ACTH stimulation with vehicle (0.05 μM, listed as LK): +8.300 nmol/l | 17-OHP percentage change vs ACTH stimulation with vehicle (0.05 μM, listed as LK): (+41%) | Androstenedione absolute change vs ACTH stimulation with vehicle (0.05 μM, listed as LK): -9.600 nmol/L | Androstenedione percentage change vs ACTH stimulation with vehicle (0.05 μM, listed as LK): (−50%) | Corticosterone absolute change vs ACTH stimulation with vehicle (0.05 μM, listed as LK): 97.95 nmol/L | Corticosterone percentage change vs ACTH stimulation with vehicle (0.05 μM, listed as LK): (+29%) | Cortisol absolute change vs ACTH stimulation with vehicle (0.05 μM, listed as LK): -234.8 nmol/L | Cortisol percentage change vs ACTH stimulation with vehicle (0.05 μM, listed as LK): (−37%) | Prog percentage change vs ACTH stimulation with vehicle (0.05 μM, listed as LK): (+167%) | Testosterone absolute change vs ACTH stimulation with vehicle (0.05 μM, listed as LK): -0.3250 nmol/L | Testosterone percentage change vs ACTH stimulation with vehicle (0.05 μM, listed as LK): (−45%) | 11-DOC absolute change vs ACTH stimulation with vehicle (5 μM): -435.4 nmol/L | 11-DOC percentage change vs ACTH stimulation with vehicle (5 μM): (−99%) | 17-OHP absolute change vs ACTH stimulation with vehicle (5 μM): -31.55 nmol/L | 17-OHP percentage change vs ACTH stimulation with vehicle (5 μM): (−90%) | Androstenedione absolute change vs ACTH stimulation with vehicle (5 μM): -15.19 nmol/L | Androstenedione percentage change vs ACTH stimulation with vehicle (5 μM): (−98%) | Corticosterone absolute change vs ACTH stimulation with vehicle (5 μM): -373.7 nmol/L | Corticosterone percentage change vs ACTH stimulation with vehicle (5 μM): (−100%) | Cortisol absolute change vs ACTH stimulation with vehicle (5 μM): -640.2 nmol/L | Cortisol percentage change vs ACTH stimulation with vehicle (5 μM): (−100%) | DHEA absolute change vs ACTH stimulation with vehicle (5 μM): <LLQ | DHEAS absolute change vs ACTH stimulation with vehicle (5 μM): <LLQ | Prog absolute change vs ACTH stimulation with vehicle (5 μM): +37.66 nmol/l | Prog percentage change vs ACTH stimulation with vehicle (5 μM): (+1201%) | Testosterone absolute change vs ACTH stimulation with vehicle (5 μM): -0.5513 nmol/L | Testosterone percentage change vs ACTH stimulation with vehicle (5 μM): (−85%) | 11-DOC absolute change vs control (0.05 μM): -96.33 nmol/L | 11-DOC percentage change vs control (0.05 μM): (−37%) | 17-OHP absolute change vs control (0.05 μM): -0.4667 nmol/L | 17-OHP percentage change vs control (0.05 μM): (−4.6%) | Androstenedione absolute change vs control (0.05 μM): -6.508 nmol/L | Androstenedione percentage change vs control (0.05 μM): (−64%) | Corticosterone absolute change vs control (0.05 μM): -67.07 nmol/L | Corticosterone percentage change vs control (0.05 μM): (−33%) | Cortisol absolute change vs control (0.05 μM): -178.4 nmol/L | Cortisol percentage change vs control (0.05 μM): (−64%) | DHEA absolute change vs control (0.05 μM): <LLQ | DHEAS absolute change vs control (0.05 μM): <LLQ | Prog absolute change vs control (0.05 μM): +5.108 nmol/l | Prog percentage change vs control (0.05 μM): (+123%) | Testosterone absolute change vs control (0.05 μM): -0.2583 nmol/L | Testosterone percentage change vs control (0.05 μM): (−48%) | 11-DOC absolute change vs control (5 μM): -280.5 nmol/L | 11-DOC percentage change vs control (5 μM): (−99%) | 17-OHP absolute change vs control (5 μM): -14.33 nmol/L | 17-OHP percentage change vs control (5 μM): (−93%) | Androstenedione absolute change vs control (5 μM): -7.978 nmol/L | Androstenedione percentage change vs control (5 μM): (−95%) | Corticosterone absolute change vs control (5 μM): -193.8 nmol/L | Corticosterone percentage change vs control (5 μM): (−99%) | Cortisol absolute change vs control (5 μM): -230.3 nmol/L | Cortisol percentage change vs control (5 μM): (−99%) | DHEA absolute change vs control (5 μM): <LLQ | DHEAS absolute change vs control (5 μM): <LLQ | Prog absolute change vs control (5 μM): +13.36 nmol/l | Prog percentage change vs control (5 μM): (+363%) | Testosterone absolute change vs control (5 μM): -0.3838 nmol/L | Testosterone percentage change vs control (5 μM): (−90%) | total change of steroids (EAS associated adrenal hyperplasia no. 1, basal condition): -343.9 nmol/L | total sum of change of the steroids: decrease (EAS associated adrenal hyperplasia no. 1, under ACTH stimulation): 138.5 nmol/L | propensity to increase 11-deoxycorticosterone secretion compared to racemic ketoconazole (human adrenal cells in the presence of ACTH drive): less propensity to increase 11-deoxycorticosterone secretion

Reference: patent publication US12201632B2, “Levoketoconazole for treatment of congenital adrenal hyperplasia and primary aldosteronism” (Strongbridge Dublin Limited, priority 2018, dated 2025)
